The values that follow come from ChEMBL document CHEMBL1201862, “PubChem BioAssay data set” (2004).

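Protocol summary: plate cells (96-well), add compound at 5 concentrations, incubate 48 h, interpolate endpoints linearly. Here, GI50 denotes the concentration required for 50% inhibition of growth.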 Active and inactive are the calls of the source. No stated cut-off is given here; in the data, active = GI50 up to about 1.1 µM and inactive = higher. Bounds are passed on as bounds.

Among the test systems are A498; A549; CAKI-1; COLO 205; DU-145; HCC 2998; KM12; MCF7; Malme-3M; NCI-H522; NCI/ADR-RES; OVCAR-5; OVCAR-8; RPMI-8226; RXF 393; SF-295; SN12C; UACC-257; UACC-62; UO-31.
Experiment in all cases: NCI tumour cell line growth inhibition, 48 h

As for `COc1ccc(-c2c(N)n(-c3cc(OC)cc(OC)c3)c(=O)c3cc([N+](=O)[O-])ccc23)cc1`, the GI50 in the assay on A498 is 28 µM (inactive); in the assay on A549, > 100 µM (inactive); with CAKI-1, 31.4 µM (inactive); in the assay on COLO 205, > 27.3 µM (inactive); with DU-145, > 100 µM (inactive); with HCC 2998, > 100 µM (inactive). The GI50 with KM12 was > 54.5 µM (inactive); in the assay on MCF7, 29.3 µM (inactive); in the assay with Malme-3M it was > 100 µM (inactive); in the assay with NCI-H522 it was 5.19 µM (inactive); in the assay on NCI/ADR-RES, > 66.1 µM (inactive); in the assay on OVCAR-5, > 100 µM (inactive). Also, the GI50 is > 100 µM (inactive) in the assay on OVCAR-8; 2.76 µM (inactive) in the assay with RPMI-8226; 11.1 µM (inactive) with RXF 393; > 100 µM (inactive) with SF-295; > 100 µM (inactive) in the assay with SN12C; > 90.4 µM (inactive) with UACC-257. The GI50 in the assay on UACC-62 was 99.3 µM (inactive); in the assay with UO-31 it was > 23.3 µM (inactive).

For the molecule `COc1cc(NC(C)c2ccc3c(c2)OCCO3)cc(OC)c1OC` (stereo not given), the GI50 in the assay on A498 is 77.1 µM (inactive); with A549 it was 45 µM (inactive); in the assay on CAKI-1 it was 46 µM (inactive); with COLO 205, 31.3 µM (inactive); in the assay with DU-145 it was 36.6 µM (inactive); with HCC 2998, 23 µM (inactive). Also, the GI50 with KM12 was 31.5 µM (inactive); in the assay with MCF7, 29.6 µM (inactive); with Malme-3M it was 19.1 µM (inactive); in the assay on NCI-H522 it was 17.5 µM (inactive); in the assay with NCI/ADR-RES, 22.9 µM (inactive); in the assay with OVCAR-5 it was 46.6 µM (inactive). Also, the GI50 with OVCAR-8 was 47.3 µM (inactive); in the assay on RPMI-8226 it was 23.9 µM (inactive); with RXF 393 it was 27.3 µM (inactive); with SF-295 it was 23.9 µM (inactive); in the assay with SN12C, 63.2 µM (inactive); with UACC-257 it was 28.7 µM (inactive). Further, the values for the GI50 in the assay with UACC-62 and with UO-31 were 29.9 µM (inactive) and 56.9 µM (inactive), respectively.

As for `O=C(O)c1ccc(C(=O)O)c(C(=O)Nc2ccc3c(c2)C(=O)c2ccccc2-3)c1`, the GI50 with A498, with A549, with CAKI-1, in the assay on COLO 205, in the assay on DU-145 and in the assay with HCC 2998 was > 100 µM (inactive) each time. Moreover, the GI50 with KM12, in the assay on MCF7, with Malme-3M, with NCI-H522, in the assay with NCI/ADR-RES and in the assay with OVCAR-5 was > 100 µM (inactive) throughout. Also, the GI50 in the assay on OVCAR-8, in the assay on RPMI-8226, with RXF 393, in the assay on SF-295, in the assay on SN12C and with UACC-257 was > 100 µM (inactive) each time. For the same molecule, the GI50 with UACC-62 and in the assay on UO-31 was > 100 µM (inactive) throughout.

For `c1cc2c(cc1[C@@H]1OC[C@@H]3[C@H]1CO[C@H]3c1ccc3c(c1)OCO3)OCO2`, the GI50 in the assay with A498 is > 100 µM (inactive); in the assay on A549, 62.2 µM (inactive); in the assay on CAKI-1 it was 30.1 µM (inactive); in the assay with COLO 205 it was > 100 µM (inactive); in the assay on DU-145, > 100 µM (inactive); in the assay with HCC 2998, > 100 µM (inactive). For the same molecule, the GI50 in the assay with KM12 is 23.1 µM (inactive); in the assay with MCF7 it was 34.9 µM (inactive); with Malme-3M, 53.3 µM (inactive); in the assay on NCI-H522, > 100 µM (inactive); with NCI/ADR-RES, 36.6 µM (inactive); with OVCAR-5, > 100 µM (inactive). Further, the GI50 in the assay on OVCAR-8 was > 100 µM (inactive); in the assay with RPMI-8226 it was 46.3 µM (inactive); with RXF 393 it was 20.8 µM (inactive); with SF-295, > 100 µM (inactive); in the assay on SN12C it was > 100 µM (inactive); with UACC-257, 13.7 µM (inactive). Moreover, the GI50 in the assay with UACC-62 was > 100 µM (inactive); in the assay on UO-31, 65.8 µM (inactive).

As to `CC(=O)CC1CCC(=O)/C=C/C(=O)OC(CC(C)=O)CCC(=O)/C=C/C(=O)O1` (stereo not given), the GI50 in the assay with A498 was 18.3 µM (inactive); in the assay with A549, 21.7 µM (inactive); in the assay with CAKI-1 it was 6.53 µM (inactive); with COLO 205, 1.77 µM (inactive); in the assay on DU-145, 19.6 µM (inactive); in the assay on HCC 2998, 22.8 µM (inactive). The GI50 in the assay with KM12 was 20.8 µM (inactive); with MCF7 it was 9.25 µM (inactive); in the assay with Malme-3M it was 2.43 µM (inactive); in the assay with NCI-H522 it was 1.14 µM (inactive); in the assay with NCI/ADR-RES, 19.9 µM (inactive); with OVCAR-5, 17.6 µM (inactive). For the same molecule, the GI50 was 19.3 µM (inactive) in the assay on OVCAR-8; 2.9 µM (inactive) in the assay with RPMI-8226; 3.22 µM (inactive) in the assay with RXF 393; 13.6 µM (inactive) with SF-295; 8.55 µM (inactive) in the assay with SN12C; 15.5 µM (inactive) in the assay on UACC-257. The GI50 is 14.6 µM (inactive) with UACC-62 and 12.6 µM (inactive) in the assay on UO-31.

For `COc1ccc2nc3cc([N+](=O)[O-])ccc3c(NNc3ccc([N+](=O)[O-])cc3)c2c1`, the GI50 is 0.0951 µM (active) with A498; 7.18 µM (inactive) with A549; 0.818 µM (active) in the assay on CAKI-1; 17.2 µM (inactive) with COLO 205; 47.8 µM (inactive) in the assay with DU-145; 11.1 µM (inactive) in the assay with HCC 2998. The GI50 is 24.5 µM (inactive) in the assay on KM12; 4.01 µM (inactive) in the assay with MCF7; 30.1 µM (inactive) in the assay with Malme-3M; 29.3 µM (inactive) with NCI-H522; 61.8 µM (inactive) with NCI/ADR-RES; 3.91 µM (inactive) in the assay on OVCAR-5. The GI50 in the assay with OVCAR-8 was > 58.1 µM (inactive); with RPMI-8226 it was 18.7 µM (inactive); in the assay on RXF 393, 44.1 µM (inactive); in the assay on SF-295, 22 µM (inactive); in the assay on SN12C, 31.5 µM (inactive); with UACC-257, 1.83 µM (inactive). Besides, the GI50 in the assay on UACC-62 is 3.37 µM (inactive); in the assay on UO-31, 24.7 µM (inactive).

As to `O=[N+]([O-])c1ccc(-[n+]2ccc3ccccc3c2)c([N+](=O)[O-])c1`, the GI50 in the assay with A498 is 14.8 µM (inactive); in the assay on A549, 16.4 µM (inactive); with CAKI-1 it was 4.14 µM (inactive); in the assay with COLO 205, 2.55 µM (inactive); in the assay on DU-145 it was 14.6 µM (inactive); in the assay on HCC 2998, 13.7 µM (inactive). Further, the GI50 in the assay on KM12 was 12.3 µM (inactive); with MCF7, 1.88 µM (inactive); in the assay on Malme-3M it was 3.94 µM (inactive); in the assay with NCI-H522 it was 2.1 µM (inactive); in the assay with NCI/ADR-RES, 3.28 µM (inactive); with OVCAR-5, 11.7 µM (inactive). Moreover, the GI50 was 2.47 µM (inactive) with OVCAR-8; 2.32 µM (inactive) with RPMI-8226; 1.92 µM (inactive) in the assay with RXF 393; 14.8 µM (inactive) in the assay on SF-295; 2.69 µM (inactive) in the assay with SN12C; 1.81 µM (inactive) with UACC-257. Moreover, the GI50 with UACC-62 was 2.28 µM (inactive); with UO-31, 5.02 µM (inactive).
